Experimental data reported in patent publication US10752624B2, “Kinase inhibitors” (Origenis GmbH, priority 2012, dated 2020).

Assays:
LRRK2 = LRRK2 (Homo sapiens, UniProt Q5S007); assay: LRRK2-LRRK2 G2019S-Assay (LanthaScreen Eu Kinase Binding Assay); conditions: 5 nM LRRK2, 10 nM tracer 236, 2 nM EU-Anti-GST antibody, 1 h at RT; read-out: LRRK2 Activities: IC50
How it was run: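 In a TR-FRET tracer displacement assay, LRRK2 or its mutants at 5 nM were mixed with 2 nM Eu-anti-GST antibody and 10 nM tracer 236 in kinase buffer A for 1 h at RT. The 665/615 nm emission ratio was plotted against inhibitor concentration, and IC50 came from a variable-slope sigmoidal fit.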

SYK kinase = molecular target: T1, SYK kinase (Homo sapiens, UniProt P43405); assay: SYK Assay (OMNIA Kinase Assay, SOX peptide fluorescence); format: biochemical; conditions: 1 mM ATP, 10 μM Omnia Peptide Substrate Tyr 7, 30° C., readings for 30 minutes; read-out: SYK Activities: IC50
T1 construct: purchased Invitrogen, Carlsbad
How it was run: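 The reaction was run at 30 °C with 1 mM ATP, 0.2 mM DTT and 10 μM Omnia Tyr 7 peptide (final) and started by adding SYK. Chelation-enhanced SOX fluorescence (ex 360/em 485 nm) was read every 30 s for 30 min. Reaction velocity versus inhibitor concentration was fitted sigmoidally for IC50.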

LRRK2, sequence (Q5S007 970-2527 limits assumed): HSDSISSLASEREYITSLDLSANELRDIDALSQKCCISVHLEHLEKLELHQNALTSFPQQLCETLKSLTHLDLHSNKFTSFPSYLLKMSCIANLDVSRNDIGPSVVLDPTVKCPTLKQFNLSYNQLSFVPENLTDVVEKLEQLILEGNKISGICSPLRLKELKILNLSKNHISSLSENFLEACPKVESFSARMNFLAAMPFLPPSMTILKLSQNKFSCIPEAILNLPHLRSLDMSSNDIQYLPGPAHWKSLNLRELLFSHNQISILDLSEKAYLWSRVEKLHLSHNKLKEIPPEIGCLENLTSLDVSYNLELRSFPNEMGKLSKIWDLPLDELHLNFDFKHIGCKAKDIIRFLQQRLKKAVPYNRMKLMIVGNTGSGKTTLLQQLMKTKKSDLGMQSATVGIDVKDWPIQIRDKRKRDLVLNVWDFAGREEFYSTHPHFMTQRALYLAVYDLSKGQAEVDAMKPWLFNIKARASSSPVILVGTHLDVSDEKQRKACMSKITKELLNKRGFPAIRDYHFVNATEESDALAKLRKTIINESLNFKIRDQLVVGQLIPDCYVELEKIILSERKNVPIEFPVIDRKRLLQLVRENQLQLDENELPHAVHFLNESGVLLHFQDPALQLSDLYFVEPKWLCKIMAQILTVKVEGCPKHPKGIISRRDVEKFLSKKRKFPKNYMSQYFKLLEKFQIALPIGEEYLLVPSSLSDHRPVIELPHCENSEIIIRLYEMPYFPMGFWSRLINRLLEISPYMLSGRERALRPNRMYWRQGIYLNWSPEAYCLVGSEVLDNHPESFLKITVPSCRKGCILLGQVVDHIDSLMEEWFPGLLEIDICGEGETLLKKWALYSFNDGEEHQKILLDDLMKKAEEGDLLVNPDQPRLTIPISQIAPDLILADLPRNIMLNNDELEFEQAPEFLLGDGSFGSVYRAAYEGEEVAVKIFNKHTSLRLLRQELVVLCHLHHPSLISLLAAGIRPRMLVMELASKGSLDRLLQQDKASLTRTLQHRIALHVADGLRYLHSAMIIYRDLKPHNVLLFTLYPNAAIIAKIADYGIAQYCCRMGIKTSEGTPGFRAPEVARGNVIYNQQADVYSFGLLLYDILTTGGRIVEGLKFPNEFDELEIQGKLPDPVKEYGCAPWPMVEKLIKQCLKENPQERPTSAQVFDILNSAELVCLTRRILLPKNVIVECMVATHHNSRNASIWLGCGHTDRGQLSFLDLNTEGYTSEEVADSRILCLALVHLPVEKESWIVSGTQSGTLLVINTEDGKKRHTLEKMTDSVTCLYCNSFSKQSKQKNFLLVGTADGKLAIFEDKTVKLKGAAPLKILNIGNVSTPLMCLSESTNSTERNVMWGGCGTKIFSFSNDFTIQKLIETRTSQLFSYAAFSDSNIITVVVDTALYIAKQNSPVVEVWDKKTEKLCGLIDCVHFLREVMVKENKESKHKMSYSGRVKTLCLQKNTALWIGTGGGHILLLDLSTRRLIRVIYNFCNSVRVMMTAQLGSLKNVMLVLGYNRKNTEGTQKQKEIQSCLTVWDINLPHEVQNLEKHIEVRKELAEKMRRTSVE

Compound | IC50 (LRRK2) | IC50 (SYK kinase)
COc1ccc2nc(Nc3cnn(C(C)(C)C)c3)c3[nH]ncc3c2c1 [Example 286, N-(1-(tert-butyl)-1H-pyrazol-4-yl)-8-methoxy-3H-pyrazolo[3,4-c]quinolin-4-amine] | < 10 nM | 100 to 1000 nM
COCCCn1cc(Nc2nc3ccc(OC)cc3c3cn[nH]c23)cn1 [Example 287, 8-methoxy-N-(1-(3-methoxypropyl)-1H-pyrazol-4-yl)-3H-pyrazolo[3,4-c]quinolin-4-amine] | < 10 nM | 10 to 100 nM
COc1cc(OC)c2nc(Nc3ccc(N4CCOCC4)cc3)c3[nH]ncc3c2c1 [Example 288, 6,8-dimethoxy-N-(4-morpholinophenyl)-3H-pyrazolo[3,4-c]quinolin-4-amine] | 10 to 100 nM | 100 to 1000 nM
COc1cc(OC)c2nc(Nc3cnn(C4CCOCC4)c3)c3[nH]ncc3c2c1 [Example 289, 6,8-dimethoxy-N-(1-(tetrahydro-2H-pyran-4-yl)-1H-pyrazol-4-yl)-3H-pyrazolo[3,4-c]quinolin-4-amine] | 10 to 100 nM | 100 to 1000 nM
COCCCn1cc(Nc2nc3c(OC)cc(OC)cc3c3cn[nH]c23)cn1 [Example 290, 6,8-dimethoxy-N-(1-(3-methoxypropyl)-1H-pyrazol-4-yl)-3H-pyrazolo[3,4-c]quinolin-4-amine] | 10 to 100 nM | 100 to 1000 nM
COc1ccc2nc(Nc3cnn(C(C)C)c3)c3[nH]ncc3c2c1 [Example 292, N-(1-isopropyl-1H-pyrazol-4-yl)-8-methoxy-3H-pyrazolo[3,4-c]quinolin-4-amine] | 10 to 100 nM | 10 to 100 nM
COc1ccc2nc(Nc3cnn(C4CC4)c3)c3[nH]ncc3c2c1 [Example 293, N-(1-cyclopropyl-1H-pyrazol-4-yl)-8-methoxy-3H-pyrazolo[3,4-c]quinolin-4-amine] | 10 to 100 nM | 10 to 100 nM
COc1ccc2nc(Nc3ccc(N4CCN(CCO)CC4)cc3)c3[nH]ncc3c2c1 [Example 297, 2-(4-(4-((8-methoxy-3H-pyrazolo[3,4-c]quinolin-4-yl)amino)phenyl)piperazin-1-yl)ethan-1-ol] | 10 to 100 nM | 10 to 100 nM
COc1ccc2nc(Nc3cnn(CC(C)(C)O)c3)c3[nH]ncc3c2c1 [Example 298, 1-(4-((8-methoxy-3H-pyrazolo[3,4-c]quinolin-4-yl)amino)-1H-pyrazol-1-yl)-2-methylpropan-2-ol] | 10 to 100 nM | 100 to 1000 nM
COc1ccc2nc(Nc3cnn(C4CCN(C(C)(C)C)CC4)c3)c3[nH]ncc3c2c1 [Example 300, N-(1-(1-(tert-butyl)piperidin-4-yl)-1H-pyrazol-4-yl)-8-methoxy-3H-pyrazolo[3,4-c]quinolin-4-amine] | 10 to 100 nM | 100 to 1000 nM
COc1ccc2nc(Nc3cnn(C(C)(C)C#N)c3)c3[nH]ncc3c2c1 [Example 301, 2-(4-((8-methoxy-3H-pyrazolo[3,4-c]quinolin-4-yl)amino)-1H-pyrazol-1-yl)-2-methylpropanenitrile] | < 10 nM | 10 to 100 nM
COc1ccc(Nc2nc3cc(S(C)(=O)=O)ccc3c3cn[nH]c23)cc1OC [Example 302, N-(3,4-dimethoxyphenyl)-7-(methylsulfonyl)-3H-pyrazolo[3,4-c]quinolin-4-amine] | 100 to 1000 nM | 100 to 1000 nM
CS(=O)(=O)c1ccc2c(c1)nc(Nc1ccc(N3CCN(CCO)CC3)cc1)c1[nH]ncc12 [Example 303, 2-(4-(4-((7-(methylsulfonyl)-3H-pyrazolo[3,4-c]quinolin-4-yl)amino)phenyl)piperazin-1-yl)ethan-1-ol] | 100 to 1000 nM | 10 to 100 nM
COc1cccc2c1nc(Nc1cnn(C3CCOCC3)c1)c1[nH]ncc12 [Example 307, 6-methoxy-N-(1-(tetrahydro-2H-pyran-4-yl)-1H-pyrazol-4-yl)-3H-pyrazolo[3,4-c]quinolin-4-amine] | 100 to 1000 nM | 100 to 1000 nM
CS(=O)(=O)c1ccc2nc(Nc3ccc(N4CCN(CCO)CC4)cc3)c3[nH]ncc3c2c1 [Example 309, 2-(4-(4-((8-(methylsulfonyl)-3H-pyrazolo[3,4-c]quinolin-4-yl)amino)phenyl)piperazin-1-yl)ethan-1-ol] | < 10 nM | 10 to 100 nM
COc1ccc2nc(Nc3cnn(CC(=O)N(C)C)c3)c3n[nH]cc3c2c1 [Example 311, 2-(4-((8-methoxy-2H-pyrazolo[3,4-c]quinolin-4-yl)amino)-1H-pyrazol-1-yl)-N,N-dimethylacetamide] | 10 to 100 nM | 100 to 1000 nM
COc1ccc2nc(Nc3cnn(C4CCNC4)c3)c3n[nH]cc3c2c1 (stereo not drawn) [Example 312, 8-methoxy-N-(1-(pyrrolidin-3-yl)-1H-pyrazol-4-yl)-2H-pyrazolo[3,4-c]quinolin-4-amine] | 10 to 100 nM | < 10 nM

Compound | IC50 (LRRK2) | IC50 (SYK kinase)
COCC(COC)n1cc(Nc2nc3ccc(OC)cc3c3c[nH]nc23)cn1 [Example 313, N-(1-(1,3-dimethoxypropan-2-yl)-1H-pyrazol-4-yl)-8-methoxy-2H-pyrazolo[3,4-c]quinolin-4-amine] | 10 to 100 nM | 100 to 1000 nM
COc1ccc2nc(Nc3cnn(C4CCCOC4)c3)c3n[nH]cc3c2c1 (stereo not drawn) [Example 314, 8-methoxy-N-(1-(tetrahydro-2H-pyran-3-yl)-1H-pyrazol-4-yl)-2H-pyrazolo[3,4-c]quinolin-4-amine] | 10 to 100 nM | 10 to 100 nM
COC(C)(C)Cn1cc(Nc2nc3ccc(S(C)(=O)=O)cc3c3cn[nH]c23)cn1 [Example 315, N-(1-(2-methoxy-2-methylpropyl)-1H-pyrazol-4-yl)-8-(methylsulfonyl)-3H-pyrazolo[3,4-c]quinolin-4-amine] | 10 to 100 nM | 10 to 100 nM
CS(=O)(=O)c1ccc2nc(Nc3ccc(N4CCC(O)CC4)cc3)c3[nH]ncc3c2c1 [Example 316, 1-(4-((8-(methylsulfonyl)-3H-pyrazolo[3,4-c]quinolin-4-yl)amino)phenyl)piperidin-4-ol] | 10 to 100 nM | 10 to 100 nM
COc1ccc2nc(Nc3cnn(C(C)C(C)C)c3)c3n[nH]cc3c2c1 (stereo not drawn) [Example 321, 8-methoxy-N-(1-(3-methylbutan-2-yl)-1H-pyrazol-4-yl)-2H-pyrazolo[3,4-c]quinolin-4-amine] | 10 to 100 nM | 100 to 1000 nM
CS(=O)(=O)c1ccc2nc(Nc3cnn(C4CCCOC4)c3)c3n[nH]cc3c2c1 (stereo not drawn) [Example 323, 8-(methylsulfonyl)-N-(1-(tetrahydro-2H-pyran-3-yl)-1H-pyrazol-4-yl)-2H-pyrazolo[3,4-c]quinolin-4-amine] | 10 to 100 nM | 10 to 100 nM
CC(C)C(C)n1cc(Nc2nc3ccc(S(C)(=O)=O)cc3c3c[nH]nc23)cn1 (stereo not drawn) [Example 324, N-(1-(3-methylbutan-2-yl)-1H-pyrazol-4-yl)-8-(methylsulfonyl)-2H-pyrazolo[3,4-c]quinolin-4-amine] | < 10 nM | 10 to 100 nM
CS(=O)(=O)c1ccc2nc(Nc3cnn(C4CCNC4)c3)c3n[nH]cc3c2c1 (stereo not drawn) [Example 327, 8-(methylsulfonyl)-N-(1-(pyrrolidin-3-yl)-1H-pyrazol-4-yl)-2H-pyrazolo[3,4-c]quinolin-4-amine] | < 10 nM | < 10 nM
CN1C(=O)COc2ccc(Nc3nc4ccc(S(C)(=O)=O)cc4c4c[nH]nc34)cc21 [Example 328, 4-methyl-6-((8-(methylsulfonyl)-2H-pyrazolo[3,4-c]quinolin-4-yl)amino)-2H-benzo[b][1,4]oxazin-3(4H)-one] | 10 to 100 nM | 100 to 1000 nM
CC(C)(O)Cn1cc(Nc2nc3cc(S(C)(=O)=O)ccc3c3cn[nH]c23)cn1 [Example 329, 2-methyl-1-(4-((7-(methylsulfonyl)-3H-pyrazolo[3,4-c]quinolin-4-yl)amino)-1H-pyrazol-1-yl)propan-2-ol] | 100 to 1000 nM | 10 to 100 nM
CC(=O)Nc1cccc(Nc2nc3ccc(S(C)(=O)=O)cc3c3c[nH]nc23)c1 [Example 331, N-(3-((8-(methylsulfonyl)-2H-pyrazolo[3,4-c]quinolin-4-yl)amino)phenyl)acetamide] | 10 to 100 nM | 100 to 1000 nM
COc1ccc(Nc2nc3ccc(S(C)(=O)=O)cc3c3c[nH]nc23)cc1NC(C)=O [Example 332, N-(2-methoxy-5-((8-(methylsulfonyl)-2H-pyrazolo[3,4-c]quinolin-4-yl)amino)phenyl)acetamide] | 10 to 100 nM | 10 to 100 nM
CCc1cccc(Nc2nc3ccc(S(C)(=O)=O)cc3c3c[nH]nc23)c1 [Example 333, N-(3-ethylphenyl)-8-(methylsulfonyl)-2H-pyrazolo[3,4-c]quinolin-4-amine] | 10 to 100 nM | 100 to 1000 nM
CC(C(=O)O)n1cc(Nc2nc3ccc(S(C)(=O)=O)cc3c3c[nH]nc23)cn1 (stereo not drawn) [Example 334, 2-(4-((8-(methylsulfonyl)-2H-pyrazolo[3,4-c]quinolin-4-yl)amino)-1H-pyrazol-1-yl)propanoic acid] | 10 to 100 nM | 10 to 100 nM
COc1cccc2nc(Nc3cnn(CC(=O)N(C)C)c3)c3[nH]ncc3c12 [Example 339, 2-(4-((9-methoxy-3H-pyrazolo[3,4-c]quinolin-4-yl)amino)-1H-pyrazol-1-yl)-N,N-dimethylacetamide] | 10 to 100 nM | 100 to 1000 nM
COCC(COC)n1cc(Nc2nc3cccc(OC)c3c3cn[nH]c23)cn1 [Example 340, N-(1-(1,3-dimethoxypropan-2-yl)-1H-pyrazol-4-yl)-9-methoxy-3H-pyrazolo[3,4-c]quinolin-4-amine] | < 10 nM | 100 to 1000 nM
